Earlier results on one compound are cited in patent EP2908850B1, “A COMPOSITION COMPRISING GLUCORAPHANIN, MYROSINASE AND A BUFFERED SOLUTION FOR USE IN THE TREATMENT OF NEURODEGENERATIVE DISEASES” (Bramanti, Placido, priority 2012, dated 2014).

Structures are written as SMILES.

The conditions of the data set: state of the art statement.

Consider `C[S+]([O-])CCCCN=C=S` (racemic) [RS,SS-SFN, sulforaphane], for which the solubility in water entry is on record as “slightly soluble in water” and the stability result is on record as “unstable”.
